What follows are molecules tested on HCV 1b-377-neo replicon cells (assay: HCV replicon assay, HCV 1b-377-neo replicon cells (1b FRET)). Conditions: HCV 1b-377-neo replicon cells; HCV 1b genotype.
Format: cell-based, Hepatitis C virus genotype 1b
How it was run: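 FRET-based replicon assay in HCV 1b-377-neo cells, including a comparison line carrying the NS5A Y2065H mutation that confers resistance to a reference compound.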

SMILES | EC50 range against HCV 1b (Table 2, Range)
O=C(C(c1ccccc1)N1C2CCC1CC2)N1CCC[C@H]1c1ncc(-c2ccc(-c3ccc(-c4cnc([C@@H]5CCCN5C(=O)C(c5ccccc5)N5C6CCC5CC6)[nH]4)cc3)cc2)[nH]1 (stereo partly drawn) [Example M1, 7,7′-(4,4′-biphenyldiylbis(1H-imidazole-5,2-diyl(2S)-2,1-pyrrolidinediyl(2-oxo-1-phenyl-2,1-ethanediyl)))bis(7-azabicyclo[2.2.1]heptane)] | >A

Same assay, conditions: HCV 1b-377-neo replicon cells; HCV 1b genotype; read-out: EC50 range against HCV 1b (Table 2, Range)

SMILES | EC50
COC(=O)N[C@@H](C(=O)N1CCC[C@H]1c1ncc(-c2ccc(-c3ccc(-c4cnc([C@@H]5CCCN5C(=O)[C@H]5CCC(=O)N5)[nH]4)cc3)cc2)[nH]1)c1ccccc1 [Example 84-3] | 0.001 to 0.999 nM

Same assay, conditions: Hepatitis C virus, HCV 1b-377-neo replicon cells; HCV 1b genotype; read-out: EC50 range against HCV 1b (Table 2, Range)

SMILES | EC50
COC(=O)N[C@@H](C)C(=O)N1C[C@H](F)C[C@H]1c1ncc(-c2ccc(-c3ccc(-c4cnc([C@@H]5C[C@@H](F)CN5C(=O)[C@H](C)NC(=O)OC)[nH]4)cc3)cc2)[nH]1 [JG-3, methyl ((1S)-2-((2S,4R)-4-fluoro-2-(5-(4′-(2-((2S,4R)-4-fluoro-1-(N-(methoxycarbonyl)-L-alanyl)-2-pyrrolidinyl)-1H-imidazol-5-yl)-4-biphenylyl)-1H-imidazol-2-yl)-1-pyrrolidinyl)-1-methyl-2-oxoethyl)carbamate] | 0.001 to 0.999 nM
COC(=O)N[C@H](C(=O)N1C[C@H](F)C[C@H]1c1ncc(-c2ccc(-c3ccc(-c4cnc([C@@H]5C[C@@H](F)CN5C(=O)[C@@H](NC(=O)OC)C(C)C)[nH]4)cc3)cc2)[nH]1)C(C)C [JG-16, methyl ((1S)-1-(((2S,4R)-4-fluoro-2-(5-(4′-(2-((2S,4R)-4-fluoro-1-((2S)-2-((methoxycarbonyl)amino)-3-methylbutanoyl)-2-pyrrolidinyl)-1H-imidazol-5-yl)-4-biphenylyl)-1H-imidazol-2-yl)-1-pyrrolidinyl)carbonyl)-2-methylpropyl)carbamate] | 0.001 to 0.999 nM
COC(=O)Cc1[nH]c([C@@H]2CCCN2C(=O)[C@@H](NC(=O)OC)[C@@H](C)OC)nc1-c1ccc(-c2ccc(-c3cnc([C@@H]4CCCN4C(=O)[C@@H](NC(=O)OC)[C@@H](C)OC)[nH]3)cc2)cc1 [Example J14b, methyl (2-((2S)-1-(N-(methoxycarbonyl)-O-methyl-L-threonyl)-2-pyrrolidinyl)-4-(4′-(2-((2S)-1-(N-(methoxycarbonyl)-O-methyl-L-threonyl)-2-pyrrolidinyl)-1H-imidazol-4-yl)-4-biphenylyl)-1H-imidazol-5-yl)acetate] | 0.001 to 0.999 nM
COC(=O)N[C@@H](C)C(=O)N(C)[C@@H](C)c1ncc(-c2ccc(-c3ccc(-c4[nH]c([C@@H]5CCCN5C(=O)[C@H](C)NC(=O)OC)nc4C(F)(F)F)cc3)cc2)[nH]1 [Example J42.a, methyl ((1S)-2-((2S)-2-(5-(4′-(2-((1S)-1-((N-(methoxycarbonyl)-L-alanyl)(methyl)amino)ethyl)-1H-imidazol-5-yl)-4-biphenylyl)-4-(trifluoromethyl)-1H-imidazol-2-yl)-1-pyrrolidinyl)-1-methyl-2-oxoethyl)carbamate] | 0.001 to 0.999 nM
O=C([C@H](O)Cc1ccccc1)N1CCC[C@H]1c1ncc(-c2ccc(-c3ccc(-c4cnc([C@@H]5CCCN5C(=O)[C@H](O)Cc5ccccc5)[nH]4)cc3)cc2)[nH]1 [Example 9, (2R,2′R)-1,1′-(4,4′-biphenyldiylbis(1H-imidazole-5,2-diyl(2S)-2,1-pyrrolidindiyl))bis(1-oxo-3-phenyl-2-propanol)] | 1 to 99 nM
COC(=O)N[C@H](C(=O)N1CCC[C@H]1c1ncc(-c2ccc(-c3ccc(-c4cnc([C@@H]5CCCN5C(=O)[C@@H](NC(=O)OC)C(C)(C)O)[nH]4)cc3)cc2)[nH]1)C(C)C [Example M105] | 1 to 99 nM
COC(=O)N[C@H]1CC[C@@H](C(=O)N2CCC[C@H]2c2ncc(-c3ccc(-c4ccc(-c5cnc([C@@H]6CCCN6C(=O)[C@H]6CC[C@@H](NC(=O)OC)CC6)[nH]5)cc4)cc3)[nH]2)CC1 [cj-150, dimethyl (4,4′-biphenyldiylbis(1H-imidazole-5,2-diyl(2S)-2,1-pyrrolidinediylcarbonylcis-4,1-cyclohexanediyl))biscarbamate] | 1 to 99 nM
CCNC(=O)N[C@@H](C(=O)N1C[C@H](O)C[C@H]1c1ncc(-c2ccc(-c3ccc(-c4cnc([C@@H]5C[C@@H](O)CN5C(=O)[C@H](NC(=O)NCC)c5ccccc5)[nH]4)cc3)cc2)[nH]1)c1ccccc1 [Example 24-14, N′,N′′′-(4,4′-biphenyldiylbis(1H-imidazole-5,2-diyl((2S,4R)-4-hydroxy-2,1-pyrrolidinediyl)((1R)-2-oxo-1-phenyl-2,1-ethanediyl)))bis(1-ethylurea)] | 1 to 99 nM
CCN(CC)[C@@H](C)C(=O)N1CCC[C@H]1c1ncc(-c2ccc(-c3ccc(-c4cnc([C@@H]5CCCN5C(=O)[C@@H](NC(=O)OC)C(C)C)[nH]4)cc3)cc2)[nH]1 [Example M69, methyl ((1S)-1-(((2S)-2-(5-(4′-(2-((2S)-1-(N,N-diethyl-L-alanyl)-2-pyrrolidinyl)-1H-imidazol-5-yl)-4-biphenylyl)-1H-imidazol-2-yl)-1-pyrrolidinyl)carbonyl)-2-methylpropyl)carbamate] | 100 to 999 nM
O=C(N1CCC[C@H]1c1ncc(-c2ccc(-c3ccc(-c4cnc([C@@H]5CCCN5C(=O)C5(O)CC5)[nH]4)cc3)cc2)[nH]1)C1(O)CC1 [Example 24, 1,1′-(4,4′-biphenyldiylbis(1H-imidazole-5,2-diyl(2S)-2,1-pyrrolidinediylcarbonyl))dicyclopropanol] | 1 to 99 nM
COC(=O)N[C@@H](C(=O)N1CCC[C@H]1c1ncc(-c2ccc(-c3ccc(-c4cnc([C@@H]5CCCN5C(=O)Cc5ccccc5C)[nH]4)cc3)cc2)[nH]1)c1ccccc1 [Example 84-69, methyl ((1R)-2-((2S)-2-(5-(4′-(2-((2S)-1-((2-methylphenyl)acetyl)-2-pyrrolidinyl)-1H-imidazol-5-yl)-4-biphenylyl)-1H-imidazol-2-yl)-1-pyrrolidinyl)-2-oxo-1-phenylethyl)carbamate] | 0.001 to 0.999 nM
CCCN(CCC)[C@H](C)C(=O)N1CCC[C@H]1c1ncc(-c2ccc(-c3ccc(-c4cnc([C@@H]5CCCN5C(=O)[C@@H](c5ccccc5)N(CC)CC)[nH]4)cc3)cc2)[nH]1 [Example M46, N-((1R)-2-((2S)-2-(5-(4′-(2-((2S)-1-((2R)-2-(diethylamino)-2-phenylacetyl)-2-pyrrolidinyl)-1H-imidazol-5-yl)-4-biphenylyl)-1H-imidazol-2-yl)-1-pyrrolidinyl)-1-methyl-2-oxoethyl)-N-propyl-1-propanamine] | 1 to 99 nM
CN[C@@H](CC(C)C)C(=O)N1CCC[C@H]1c1nc(-c2ccc(-c3ccc(-c4cnc([C@@H]5CCCN5C(=O)[C@H](CC(C)C)NC)[nH]4)cc3)cc2)c[nH]1 [Example F32, (2S)-N,4-dimethyl-1-((2S)-2-(4-(4′-(2-((2S)-1-((2S)-4-methyl-2-(methylamino)pentanoyl)-2-pyrrolidinyl)-1H-imidazol-5-yl)-4-biphenylyl)-1H-imidazol-2-yl)-1-pyrrolidinyl)-1-oxo-2-pentanamine] | 100 to 999 nM
CC(C)[C@H](NC(=O)N(C)C)C(=O)N1CCC[C@H]1c1ncc(-c2ccc(-c3ccc(-c4cnc([C@@H]5CCCN5C(=O)[C@@H](NC(=O)N(C)C)C(C)C)[nH]4)cc3)cc2)[nH]1 [OL-1, 3-((1S)-1-(((2S)-2-(4-(4′-(2-((2S)-1-((2S)-2-((dimethylcarbamoyl)amino)-3-methylbutanoyl)-2-pyrrolidinyl)-1H-imidazol-4-yl)-4-biphenylyl)-1H-imidazol-2-yl)-1-pyrrolidinyl)carbonyl)-2-methylpropyl)-1,1-dimethylurea] | 0.001 to 0.999 nM
CCCN(CCC)[C@@H](C)C(=O)N1CCC[C@H]1c1ncc(-c2ccc(-c3ccc(-c4cnc([C@@H]5CCCN5C(=O)[C@@H](NC(=O)OC)C(C)C)[nH]4)cc3)cc2)[nH]1 [Example M84, methyl ((1S)-1-(((2S)-2-(5-(4′-(2-((2S)-1-(N,N-dipropyl-L-alanyl)-2-pyrrolidinyl)-1H-imidazol-5-yl)-4-biphenylyl)-1H-imidazol-2-yl)-1-pyrrolidinyl)carbonyl)-2-methylpropyl)carbamate] | 1 to 99 nM
CCN(CC)[C@@H](COC)C(=O)N1CCC[C@H]1c1ncc(-c2ccc(-c3ccc(-c4cnc([C@@H]5CCCN5C(=O)[C@@H](NC(=O)OC)C(C)C)[nH]4)cc3)cc2)[nH]1 [Example M88, methyl ((1S)-1-(((2S)-2-(5-(4′-(2-((2S)-1-(N,N-diethyl-O-methyl-L-seryl)-2-pyrrolidinyl)-1H-imidazol-5-yl)-4-biphenylyl)-1H-imidazol-2-yl)-1-pyrrolidinyl)carbonyl)-2-methylpropyl)carbamate] | 1 to 99 nM
COC(=O)N[C@@H](CC(=O)N1CCC[C@H]1c1ncc(-c2ccc(-c3ccc(-c4cnc([C@@H]5CCCN5C(=O)C[C@@H](Cc5ccsc5)NC(=O)OC)[nH]4)cc3)cc2)[nH]1)Cc1ccsc1 [cj-137, dimethyl (4,4′-biphenyldiylbis(1H-imidazole-5,2-diyl(2S)-2,1-pyrrolidinediyl((2R)-4-oxo-1-(3-thienyl)-4,2-butanediyl)))biscarbamate] | 1 to 99 nM
COC(=O)N[C@@H](C)C(=O)N1CC(F)(F)C[C@H]1c1ncc(-c2ccc(-c3ccc(-c4cnc([C@@H]5CC(F)(F)CN5C(=O)[C@H](C)NC(=O)OC)[nH]4)cc3)cc2)[nH]1 [OL-11, methyl ((1S)-2-((2S)-2-(4-(4′-(2-((2S)-4,4-difluoro-1-(N-(methoxycarbonyl)-L-alanyl)-2-pyrrolidinyl)-1H-imidazol-4-yl)-4-biphenylyl)-1H-imidazol-2-yl)-4,4-difluoro-1-pyrrolidinyl)-1-methyl-2-oxoethyl)carbamate] | 0.001 to 0.999 nM
COc1ccc(-c2ccc(-c3cnc([C@@H]4CCCN4C(=O)[C@@H](c4ccccc4)N(C)C)[nH]3)cc2)cc1-c1c[nH]c([C@@H]2CCCN2C(=O)[C@@H](c2ccccc2)N(C)C)n1 [Example D33, (1R,1′R)-2,2′-((4-methoxy-3,4′-biphenyldiyl)bis(1H-imidazole-5,2-diyl(2S)-2,1-pyrrolidinediyl))bis (N,N-dimethyl-2-oxo-1-phenylethanamine)] | 0.001 to 0.999 nM

Reference: patent US8574563B2 (Bristol-Myers Squibb Company, priority 2006, dated 2013)
